Data reported in US8592420B2, “Method of treating an anxiety disorder” (Kyowa Hakko Kirin Co., Ltd., priority 2003, dated 2013).

Columns and labels:
Assay type in all cases: in vivo
rat [1] = assay: Elevated Plus-Maze Test in the rat, adjunctive treatment with alprazolam (Test Example 8); details: for OPEN ARMS NUMBER OF ENTRIES % change from control / OPEN ARMS TIME SPENT % change from control / OPEN ARMS NUMBER OF ENTRIES mean ± s.e.m. / OPEN ARMS TIME SPENT (sec) mean ± s.e.m.: Table 6; for OPEN ARMS NUMBER OF ENTRIES % change from control / OPEN ARMS TIME SPENT % change from control: single compound 1 mg/kg po; for OPEN ARMS NUMBER OF ENTRIES mean ± s.e.m. / OPEN ARMS TIME SPENT (sec) mean ± s.e.m.: single compound 1 mg/kg po 60 min before test; for OPEN ARMS NUMBER OF ENTRIES mean ± s.e.m.: vehicle 2.3 ± 0.6; for OPEN ARMS TIME SPENT (sec) mean ± s.e.m.: vehicle 37.4 ± 9.5; for effect alone on open arm entries and time spent in open arms: alone at 1 mg/kg po
Protocol: (§1) The method followed that described in Naunyn. Schmied. Arch. Pharmacol., 327, 1-5 (1984) with a slight modification.
(§2) The maze consisted of 4 arms of equal length and width (50×10 cm) arranged in the form of a plus sign (+). Two opposite arms were enclosed by 40 cm high walls (closed arms). The 2 other arms had no walls (open arms). The maze was raised 50 cm above the floor. A rat was placed in the center of the plus-maze and left to explore for 5 minutes. The number of entries into the open and closed arms and the time spent in the open arms was recorded.
The test compound or vehicle was administered orally 60 minutes before the test either alone or in combination with alprazolam.
(§3) Data were analyzed by comparing the result of a treated group with that of a vehicle control group using an unpaired Student's t-test.

rat [2] = assay: Learned Helplessness in the rat (Test Example 3); details: FIG. 1, single treatment p.o. 60 min before test
Protocol: The method followed that described in J. Exp. Psychol., 74, 1-9 (1967) with a slight modification.
Preconditioning with inescapable electric foot shock was given individually to each rat in the shuttle box on day 1. A constant current (1.3 mA) shock generator delivered scrambled, inescapable shocks to the grid floor during 50 minute preconditioning period. Control rats were also individually placed in the identical chamber for 50 minutes, but shock was not given. Conditioned avoidance training session (FR1: buzzer 10 seconds, 0.6 mA foot shock; 5 seconds, interval time; 10 seconds/trial, 15 escape trials) and test session (FR2: 0.6 mA foot shock; 10 seconds, interval time; 0.5 seconds, 0.6 mA foot shock; 10 seconds, interval time; 15 seconds/trial, 15 trials) were performed on day 2 consecutively. FR1 session consisted of 15 trials during which a single shuttle response terminated shock and rats learned how to escape shocks. Subsequent FR2 session consisted of 15 trials during which each rat had to cross from one side of the shuttle box to the other and then crossed back to terminate shock. […]
The ratio of escape response was calculated from the following formula. […]
The ratio of intertrial response is calculated from the following formula. […]
Data were analyzed by comparing the result of a tested group with that of a vehicle control group using a Steel test.

Mice [3] = assay: Hole-Board Test in the mouse (Test Example 1)
Protocol: The method followed that described in Arch. Int. Pharmacodyn. Ther., 147, 372-387 (1964) with a slight modification.
Mice were individually placed on a square board (35×35 cm) raised 60 cm above the floor, containing 16 equally spaced holes (25 mm diameter). The number of head-dips occurring during a 5 minute test was counted.
(§4) The test compound or vehicle was administered orally 60 minutes before the test.
Data were analyzed by comparing the result of a tested group with that of a vehicle control group using an unpaired Student's t-test.

Mice [4] = assay: Marble Burying Test in the mouse (Test Example 2)
Protocol: (§5) The method followed that described in Eur. J. Pharmacol., 126, 223-229 (1986) with a slight modification.
(§6) Mice exposed to a novel object (marbles) tend to bury them in the sawdust floor covering.
(§7) Mice were individually placed in transparent plastic cages with 25 colored marbles (diameter 1.5 cm) on 5 cm of the sawdust floor. The cage was covered with a similar cage upturned.
(§8) The number of marbles covered by sawdust (50% or more) was counted at the end of a 30 minute test.
as §4
Data were analyzed by comparing the result of treated groups with that of a vehicle control group using an unpaired Student's t-test.

rat [5] = assay: Elevated Plus-Maze Test in the rat (Test Example 4)
Protocol: as §1, §2
The test compound or vehicle was administered orally 60 minutes before the test, respectively.
as §3

Mice [6] = assay: Marble Burying Test in the mouse, adjunctive treatment with buspirone or fluoxetine (Test Example 7); details: for NUMBER OF MARBLES COVERED BY SAWDUST % change from control / NUMBER OF MARBLES COVERED BY SAWDUST mean ± s.e.m.: Table 5; for NUMBER OF MARBLES COVERED BY SAWDUST mean ± s.e.m.: 60 min before test, vehicle 17.1 ± 1.6; for effect of single administration on number of marbles covered by sawdust: single administration: Compound A 1 mg/kg, buspirone 15 mg/kg, fluoxetine 20 mg/kg, po
Protocol: as §5, §6, §7, §8
The test compound or vehicle was administered orally 60 minutes before the test either alone or in combination with buspirone or fluoxetine.
as §3

male rats = assay: Social Interaction Test in the rat (Test Example 5)
Protocol: The method followed that described in Br. J. Pharmacol., 62, 19-24 (1978) with a slight modification.
A pair of male rats were placed in opposite corners of an open-topped arena (50×50×50 cm) and allowed to interact with each other. The time spent in active social interaction (i.e. sniffing, following, grooming, mounting, crawling under or over the partner) was recorded for a 10 minute session.
The test compound or vehicle was administered orally 60 minutes before the test, with each rat of the same pair receiving the same treatment.
Data were analyzed by comparing the result of a treated group with that of a vehicle control group using an unpaired Student's t-tests.

Male Wistar rats = assay: Vogel Conflict Test in the rat (Test Example 10); details: Table 7; 1 mg/kg po 60 min before test; 5 minutes punished session; vehicle 4.8 ± 1.3 (for C), 5.7 ± 0.8 (for D)
Protocol: The method followed that described in Psychopharmacol., 21, 1-7 (1971) with a slight modification. Male Wistar rats (160-200 g) were deprived of water for 48 hours prior to test session consisting of a 5 minutes period. Each rat was then placed in a test box (25×30×25 cm). The rat was allowed to explore the drinking spout to drink water. When the rat drinks a drip of water, the electric shock (0.16 mA, duration of 0.2 seconds) was delivered from the floor grid. […] The test compound or a vehicle was administered orally 60 minutes before the test, respectively. Data were analyzed by comparing the result of a tested group with that of a vehicle control group using an unpaired Student's t-test.

SMILES: CCn1c(=O)c2c(nc(/C=C/c3ccc(OC)c(OC)c3)n2C)n(CC)c1=O [Compound A, (E)-8-(3,4-dimethoxystyryl)-1,3-diethyl-7-methylxanthine]
- OPEN ARMS NUMBER OF ENTRIES % change from control (rat [1]): +65%
- OPEN ARMS TIME SPENT % change from control (rat [1]): +48%
- OPEN ARMS NUMBER OF ENTRIES mean ± s.e.m. (rat [1]): 3.8 ± 0.8
- OPEN ARMS TIME SPENT (sec) mean ± s.e.m. (rat [1]): 55.2 ± 12.1 s
- effect alone on open arm entries and time spent in open arms (rat [1]): moderate effect
- escape failure (ratio of escape response, FR2 trial) (rat [2]; 1.25 mg/kg and more): dose-dependently reversed the escape failure
- intertrial crossings (ratio of intertrial response, FR2 trial) (rat [2]): did not increase intertrial crossings
- NUMBER OF HEAD-DIPS mean ± s.e.m. (Mice [3]; Table 1-A, 3 mg/kg p.o. 60 min before test, 5 minute test, vehicle 28.6 ± 2.4): 46.7 ± 3.2
- NUMBER OF ENTRIES INTO THE 4 QUADRANTS mean ± s.e.m. (Mice [3]; Table 1-A, 3 mg/kg p.o. 60 min before test, vehicle 12.7 ± 0.8): 24.4 ± 1.7
- NUMBER OF MARBLES COVERED BY SAWDUST % change from control (Mice [4]; Table 2-A, 3 mg/kg p.o. 60 min before test): −50%
- NUMBER OF MARBLES COVERED BY SAWDUST mean ± s.e.m. (Mice [4]; Table 2-A, 3 mg/kg p.o. 60 min before test, 30 minute test, 25 marbles, vehicle 20.9 ± 1.4): 10.5 ± 2.9
- OPEN ARMS NUMBER OF ENTRIES mean ± s.e.m. (rat [5]; Table 3-A, 3 mg/kg po 60 min before test, 5 minutes, vehicle 1.9 ± 0.3): 5.4 ± 0.7
- OPEN ARMS TIME SPENT (sec) mean ± s.e.m. (rat [5]; Table 3-A, 3 mg/kg po 60 min before test, vehicle 38.9 ± 7.7): 143 ± 20.9 s
- NUMBER OF MARBLES COVERED BY SAWDUST % change from control (Mice [6]; Compound A 1 mg/kg po alone): −18%
- NUMBER OF MARBLES COVERED BY SAWDUST mean ± s.e.m. (Mice [6]; Compound A 1 mg/kg po alone): 14.1 ± 1.6
- effect of single administration on number of marbles covered by sawdust (Mice [6]): no significant effects
- TIME SPENT IN ACTIVE SOCIAL INTERACTION (sec) mean ± s.e.m. (male rats; Table 4-A, 3 mg/kg po 60 min before test, 10 minute session, vehicle 97.5 ± 8.7): 153 ± 11.2 s

SMILES: COCCOc1ccc(N2CCN(CCn3ncc4c3nc(N)n3nc(-c5ccco5)nc43)CC2)cc1 [Compound D, 5-amino-2-(2-furyl)-7-(2-{4-[4-(2-methoxyethoxy)phenyl]piperazinyl}ethyl)pyrazolo[4,3-e]-1,2,4-triazolo[1,5-c]pyrimidine]
- NUMBER OF SHOCKS mean ± s.e.m (Male Wistar rats): 10.8 ± 1.6

SMILES: COc1cc(/C=C/c2nc3c(c(=O)n(C)c(=O)n3C)n2C)cc(OC)c1OC [Compound B, (E)-1,3,7-trimethyl-8-(3,4,5-trimethoxystyryl)xanthine]
- NUMBER OF HEAD-DIPS mean ± s.e.m. (Mice [3]; Table 1-B, 3 mg/kg p.o. 60 min before test, vehicle 30.2 ± 3.9): 43.9 ± 4.2
- NUMBER OF MARBLES COVERED BY SAWDUST % change from control (Mice [4]; Table 2-B, 3 mg/kg p.o. 60 min before test): −55%
- NUMBER OF MARBLES COVERED BY SAWDUST mean ± s.e.m. (Mice [4]; Table 2-B, 3 mg/kg p.o. 60 min before test, vehicle 20.6 ± 1.1): 9.3 ± 1.9
- OPEN ARMS NUMBER OF ENTRIES mean ± s.e.m. (rat [5]; Table 3-B, 1 mg/kg po 60 min before test, vehicle 1.8 ± 0.8): 5.8 ± 0.8
- OPEN ARMS TIME SPENT (sec) mean ± s.e.m. (rat [5]; Table 3-B, 1 mg/kg po 60 min before test, vehicle 15.6 ± 8.1): 94.4 ± 15.2 s
- TIME SPENT IN ACTIVE SOCIAL INTERACTION (sec) mean ± s.e.m. (male rats; Table 4-B, 3 mg/kg po 60 min before test, vehicle 89.0 ± 5.7): 141 ± 6.8 s

SMILES: O=C1CC2(CCCC2)CC(=O)N1CCCCN1CCN(c2ncccn2)CC1 [buspirone]
- NUMBER OF MARBLES COVERED BY SAWDUST % change from control (Mice [6]; buspirone 15 mg/kg po alone): −26%
- NUMBER OF MARBLES COVERED BY SAWDUST mean ± s.e.m. (Mice [6]; buspirone 15 mg/kg po alone): 12.7 ± 1.8
- effect of single administration on number of marbles covered by sawdust (Mice [6]): no significant effects

SMILES: Cc1nnc2n1-c1ccc(Cl)cc1C(c1ccccc1)=NC2 [alprazolam, reference compound]
- OPEN ARMS NUMBER OF ENTRIES % change from control (rat [1]): +91%
- OPEN ARMS TIME SPENT % change from control (rat [1]): +53%
- OPEN ARMS NUMBER OF ENTRIES mean ± s.e.m. (rat [1]): 4.4 ± 0.9
- OPEN ARMS TIME SPENT (sec) mean ± s.e.m. (rat [1]): 57.3 ± 12.8 s
- effect alone on open arm entries and time spent in open arms (rat [1]): moderate effect

SMILES: CC(C)(O)CCN1CCN(c2cc3nc(-c4ccco4)nn3c(N)n2)CC1 [Compound C, 5-amino-2-(2-furyl)-7-[4-(3-hydroxy-3-methylbutyl)piperazinyl][1,2,4]triazolo[1,5-c]pyrimidine]
- NUMBER OF SHOCKS mean ± s.e.m (Male Wistar rats): 10.5 ± 2.1
- NUMBER OF HEAD-DIPS mean ± s.e.m. (Mice [3]; Table 1-C, 10 mg/kg p.o. 60 min before test, vehicle 30.2 ± 3.9): 46.9 ± 3.4
- NUMBER OF MARBLES COVERED BY SAWDUST % change from control (Mice [4]; Table 2-C, 10 mg/kg p.o. 60 min before test, p 0.08): −17%
- NUMBER OF MARBLES COVERED BY SAWDUST mean ± s.e.m. (Mice [4]; Table 2-C, 10 mg/kg p.o. 60 min before test, vehicle 20.9 ± 1.1, p 0.08): 17.0 ± 1.6
- OPEN ARMS NUMBER OF ENTRIES mean ± s.e.m. (rat [5]; Table 3-C, 30 mg/kg po 60 min before test, vehicle 2.3 ± 0.5, p 0.0503): 4.2 ± 0.8
- OPEN ARMS TIME SPENT (sec) mean ± s.e.m. (rat [5]; Table 3-C, 30 mg/kg po 60 min before test, vehicle 26.4 ± 6.6): 55.2 ± 10.7 s
- TIME SPENT IN ACTIVE SOCIAL INTERACTION (sec) mean ± s.e.m. (male rats; Table 4-C, 30 mg/kg po 60 min before test, vehicle 96.2 ± 8.2): 130 ± 9.7 s

SMILES: CNCCC(Oc1ccc(C(F)(F)F)cc1)c1ccccc1 (stereo not drawn) [fluoxetine]
- NUMBER OF MARBLES COVERED BY SAWDUST % change from control (Mice [6]; fluoxetine 20 mg/kg po alone): −20%
- NUMBER OF MARBLES COVERED BY SAWDUST mean ± s.e.m. (Mice [6]; fluoxetine 20 mg/kg po alone): 13.6 ± 2.5
- effect of single administration on number of marbles covered by sawdust (Mice [6]): no significant effects
